The results in this text go back to ChEMBL document CHEMBL4196191, “Lowering Lipophilicity by Adding Carbon: One-Carbon Bridges of Morpholines and Piperazines” (J Med Chem, 2018).

Series [1] can be described thus: Dissociation constant, pKa of the compound (morpholine). The class given is physicochemical.
The nature of series [2]: Intrinsic permeability in human Caco2 cells. The class given is ADME, cell-based. Conditions: Caco-2.
Series [3] is described as follows: Intrinsic clearance in rat hepatocytes assessed per million cells. The class given is ADME, cell-based, Hepatocyte. The note with it: read-out: CLH.
Series [4] addresses Voltage-gated inwardly rectifying potassium channel KCNH2 (Homo sapiens, UniProt Q12809). Description: Inhibition of human ERG.
The nature of series [5]: Distribution coefficient, log D of the compound in buffer/octanol solution by shake-flask method. The class given is physicochemical.

Sequence of Voltage-gated inwardly rectifying potassium channel KCNH2 (Q12809 whole entry): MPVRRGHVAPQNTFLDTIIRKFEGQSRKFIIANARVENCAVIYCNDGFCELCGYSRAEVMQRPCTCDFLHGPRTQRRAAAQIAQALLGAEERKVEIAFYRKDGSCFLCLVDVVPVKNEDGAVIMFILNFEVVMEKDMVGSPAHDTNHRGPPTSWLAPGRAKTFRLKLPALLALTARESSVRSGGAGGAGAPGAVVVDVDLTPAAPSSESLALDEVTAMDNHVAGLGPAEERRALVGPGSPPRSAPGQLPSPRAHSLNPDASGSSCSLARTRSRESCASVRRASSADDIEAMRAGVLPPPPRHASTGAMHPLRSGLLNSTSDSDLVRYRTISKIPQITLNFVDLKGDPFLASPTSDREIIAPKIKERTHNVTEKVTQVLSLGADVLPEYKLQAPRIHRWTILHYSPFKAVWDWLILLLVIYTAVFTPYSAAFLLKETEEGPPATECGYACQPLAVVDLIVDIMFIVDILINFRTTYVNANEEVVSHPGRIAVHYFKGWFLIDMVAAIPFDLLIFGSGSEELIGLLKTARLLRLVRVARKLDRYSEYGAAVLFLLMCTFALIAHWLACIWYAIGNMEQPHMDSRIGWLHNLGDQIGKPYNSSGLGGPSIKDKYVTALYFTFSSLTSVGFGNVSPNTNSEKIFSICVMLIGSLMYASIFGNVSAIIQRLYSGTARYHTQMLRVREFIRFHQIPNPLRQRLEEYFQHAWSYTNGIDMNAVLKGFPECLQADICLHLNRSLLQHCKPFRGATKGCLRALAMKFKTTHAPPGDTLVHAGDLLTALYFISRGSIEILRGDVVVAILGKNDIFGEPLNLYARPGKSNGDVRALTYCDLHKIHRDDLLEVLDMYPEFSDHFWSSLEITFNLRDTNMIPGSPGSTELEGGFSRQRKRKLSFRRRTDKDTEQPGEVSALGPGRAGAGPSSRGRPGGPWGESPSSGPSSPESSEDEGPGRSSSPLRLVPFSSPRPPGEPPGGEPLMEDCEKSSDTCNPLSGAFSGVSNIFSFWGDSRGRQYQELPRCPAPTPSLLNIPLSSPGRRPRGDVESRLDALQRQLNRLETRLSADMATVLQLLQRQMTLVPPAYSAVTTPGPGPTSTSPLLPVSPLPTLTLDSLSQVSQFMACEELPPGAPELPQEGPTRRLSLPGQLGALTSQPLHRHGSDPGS

Consider `Cc1c[nH]c2ncnc(O[C@H]3CC[C@H](N4CCOCC4)CC3)c12`, for which, in series [1], the pKa (as a rule, the negative logarithm of the acid dissociation constant) was found to be 7.5. In series [2], the Papp (as a rule, a coefficient for how fast a substance crosses the barrier) worked out at 33 ×10⁻⁶ cm/s. Also, the hepatocyte CLint in series [3] was 180 µL/min/1e6 cells. In addition, the half-maximal inhibitory concentration (IC50) (usually the concentration at which inhibition is half-maximal) in series [4] was more than 39.8 µM. In series [5], the logD (in general, lipophilicity at a set pH, counting ionised and neutral species) amounted to 2.6.
`Cc1c[nH]c2ncnc(O[C@H]3CC[C@H](N4C[C@H]5C[C@@H]4CO5)CC3)c12`: in series [1], the pKa stood at 8.1. Also, in series [2], the Papp amounted to 25 ×10⁻⁶ cm/s. For the same molecule, the hepatocyte CLint in series [3] was found to be 110 µL/min/1e6 cells. Also, in series [4], the IC50 was more than 39.8 µM. The molecule also registered a log distribution coefficient (logD) in series [5] of 1.8.
Regarding `Cc1c[nH]c2ncnc(O[C@H]3CC[C@H](N4C[C@@H]5C[C@H]4CO5)CC3)c12`, in series [2], the Papp came to 29 ×10⁻⁶ cm/s. Further, in series [3], the hepatocyte CLint came to 36 µL/min/1e6 cells. In series [4], this molecule gave an IC50 of more than 39.8 µM. The pH-dependent lipophilicity (logD) in series [5] turned out to be 2.
In the same order, the values of `Cc1c[nH]c2ncnc(O[C@H]3CC[C@H](N4CCO[C@@H](C)C4)CC3)c12` are 31 ×10⁻⁶ cm/s, 140 µL/min/1e6 cells, 25.1 µM and 3.
Take `Cc1c[nH]c2ncnc(O[C@H]3CC[C@H](N4CCO[C@H](C)C4)CC3)c12`: the Papp in series [2] came to 27 ×10⁻⁶ cm/s. For the same molecule, in series [3], the hepatocyte CLint is 210 µL/min/1e6 cells. This molecule had an IC50 in series [4] of more than 39.8 µM. In addition, the pH-dependent lipophilicity (logD) in series [5] came to 3.1.
